Results published in article PMC5744665 (Journal of medicinal chemistry, 2015).

Key:
[1] = test system: E.coli DH10B pBCSK- PDC-3; experiment: MIC by agar dilution, cefotaxime alone or with boronate, strain producing PDC-3; format: cell-based; conditions: E. coli possessing the P. aeruginosa AmpC; BATSI added to cefotaxime
PDC-3 = PDC-3 (Pseudomonas aeruginosa, UniProt P24735, T105A); format: biochemical
[2] = test system: O=C(Cc1cccs1)N[C@@H]1C(=O)N2C(C(=O)O)=C(/C=C/c3ccc([N+](=O)[O-])cc3[N+](=O)[O-])CS[C@H]12; experiment: purified protein, by the assay type; conditions: other: substrate; used to correct Ki; pH 7.4
E.coli DH10B = experiment: microbe, parasite or virus in culture; format: cell-based; conditions: Escherichia coli

Compound: O=C(Cc1cccs1)N[C@@H](Cn1cc(C(=O)O)nn1)B(O)O [Compound 13a, (1R)-2-(4-Carboxy-[1,2,3]triazol-1-yl)-1-(2-thienylacetylamino)ethaneboronic acid]
- reduction in MIC of cefotaxime [1]: five dilution (2 log) reduction
- energetic contribution to binding of the carboxylate (ΔΔGbind) (PDC-3; 13a compared with 13f, from Ki vs PDC-3, ΔΔGbind = −RTln Ki ref/Ki): 2.2 kcal/mol
- improvement in recognition caused by ring hopping (ΔΔG) (PDC-3; 13a compared with Reference compound B): 0.7 kcal/mol

Compound: P99 (Enterobacter cloacae)
- Km [2]: 20.03 ± 2.05 µM

Compound: O=C(Cc1cccs1)N[C@@H]1C(=O)N2C(C(=O)O)=C(/C=C/c3ccc([N+](=O)[O-])cc3[N+](=O)[O-])CS[C@H]12 [nitrocefin, reference compound]
- Km (PDC-3; read-out: Km of nitrocefin, PDC-3, substrate, used to correct Ki): 14.6 ± 2.2 µM

Compound: O=C(Cc1cccs1)N[C@@H](Cn1ccnn1)B(O)O [Compound 13f, (1R)-2-([1,2,3]triazol-1-yl)-1-(2-thienylacetylamino)ethaneboronic acid]
- contribution of the methyltriazole to binding (ΔΔG) (PDC-3; 13f compared with Ref Compound A, from Ki vs PDC-3): 0.5 kcal/mol

Compound: CO/N=C(\C(=O)N[C@@H]1C(=O)N2C(C(=O)O)=C(COC(C)=O)CS[C@H]12)c1csc(N)n1 [TAX, cefotaxime]
- MIC (E.coli DH10B): < 0.125 µg/mL
